Here are results for 28 compounds from patent publication US7435837B2, “Dihydrobenzofuranyl alkanamine derivatives and methods for using same” (Wyeth, priority 2003, dated 2008).

The target in assay [1] is T1, human 5-hydroxytryptamine-2C (h5-HT2C) receptor (Homo sapiens, UniProt P28335).
T1 construct: expressed in transfected cells; host or cells: CHO (Chinese Hamster Ovary) cells; membranes
T1 sequence (P28335 33-458): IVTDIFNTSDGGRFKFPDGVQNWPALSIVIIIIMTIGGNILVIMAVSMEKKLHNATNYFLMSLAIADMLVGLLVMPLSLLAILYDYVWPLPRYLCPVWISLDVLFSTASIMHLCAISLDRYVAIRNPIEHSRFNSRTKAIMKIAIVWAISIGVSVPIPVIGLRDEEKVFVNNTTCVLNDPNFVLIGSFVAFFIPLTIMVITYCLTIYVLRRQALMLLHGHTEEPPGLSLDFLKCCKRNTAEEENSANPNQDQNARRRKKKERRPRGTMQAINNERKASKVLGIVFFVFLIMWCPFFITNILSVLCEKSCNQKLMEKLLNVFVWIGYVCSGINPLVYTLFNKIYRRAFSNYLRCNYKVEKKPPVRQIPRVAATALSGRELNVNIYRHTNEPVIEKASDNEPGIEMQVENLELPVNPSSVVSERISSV
The assay is described as follows: [125I]DOI binding to membranes of CHO cells expressing the human 5-HT2C receptor. The note with it: [125I]DOI radioligand, CHO cell membranes, room temperature 60 min; read-out: 5-HT2C Affinity Ki.

Assay [2] concerns the target T2, human 5-HT2C receptor (Homo sapiens, UniProt P28335).
T2 sequence (P28335 33-458): T1 sequence (P28335 33-458)
The assay is described as follows: 5-HT2C receptor-stimulated calcium mobilization (FLIPR) in CHO cells.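 On all read-outs here: Fluo-3-AM fluorescence read on FLIPR every 1 s, agonist added after 10 baseline reads, response taken as peak minus lowest raw fluorescence count.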 The class given is cell-based. The note with it: for Emax: CHO, read-out: 5-HT2C Function Emax (%); for Emax / 5-HT2C Function Emax (%): percentage of the response observed with a maximally effective concentration of 5-HT; for EC50: calcium mobilization, CHO cells stably expressing human 5-HT2C, read-out: 5-HT2C Function EC50.

`Cc1c(Cl)cc(C(C)C)c2c1CC(CN)O2` (racemic) [Example 21, (±)-1-(5-chloro-7-isopropyl-4-methyl-2,3-dihydro-1-benzofuran-2-yl)methanamine]: the Ki in assay [1] amounted to 0.009 µM. In assay [2], the maximal response (Emax) was determined as 85% and the EC50 worked out at 0.086 µM.

Consider `NCC1Cc2cc(Cl)cc(-c3ccccc3)c2O1` (single isomer, unassigned; (-)) [Example 86, (−)-1-(5-chloro-7-phenyl-2,3-dihydro-1-benzofuran-2-yl)methanamine], for which the inhibition constant (Ki) in assay [1] turned out to be 0.075 µM. For the same compound, in assay [2], the EC50 turned out to be 0.963 µM and the “5-HT2C Function Emax (%)” value is listed as 90%.

For `CNCC1Cc2cccc(-c3ccccc3F)c2O1` (racemic) [Example 412, (±)-[(N-methyl-1-[7-(2-fluorophenyl)-2,3-dihydro-1-benzofuran-2-yl]methanamine], in assay [1], the inhibition constant (Ki) came out at 0.0053 µM. For the same compound, in assay [2], the maximum response (Emax) was 90% and the EC50 came out at 0.034 µM.

As for `Cc1ccccc1-c1cccc2c1CC(CN)O2` (single isomer, unassigned; (+)) [Example 5, (+)-1-[4-(2-methylphenyl)-2,3-dihydro-1-benzofuran-2-yl]methanamine], in assay [1], the Ki came out at 0.009 µM. Besides, in assay [2], the Emax is 90% and the EC50 amounted to 0.208 µM.

For the compound `Cc1ccccc1-c1cc(C(C)C)cc2c1OC(CN)C2` (racemic) [Example 307, (±)-{[5-isopropyl-7-(2-methylphenyl)-2,3-dihydro-1-benzofuran-2-yl]methyl}amine], the inhibitory constant (Ki) in assay [1] was 0.001 µM. Further, in assay [2], the maximum response (Emax) came out at 90% and the EC50 turned out to be 0.049 µM.

For the compound `CC(C)c1cccc2c1OC(CN)C2` (single isomer, unassigned; (-)) [Example 19, (−)-(7-isopropyl-2,3-dihydro-1-benzofuran-2-yl)methylamine], the inhibitory constant (Ki) in assay [1] is 0.002 µM. In assay [2], the EC50 stood at 0.066 µM and the “5-HT2C Function Emax (%)” value was 100%.

For the compound `NCC1Cc2cccc(-c3ccc(F)cc3F)c2O1` (racemic) [Example 146, (±)-1-[7-(2,4-difluorophenyl)-2,3-dihydro-1-benzofuran-2-yl]methanamine], the inhibition constant Ki in assay [1] was 0.0024 µM. In assay [2], the Emax was 90% and the half-maximal effective concentration (EC50) worked out at 0.005 µM.

As for `COc1cc2c(c(-c3ccc(F)c(Cl)c3)c1)OC(CN)C2` (racemic) [Example 373, (±)-{[7-(3-chloro-4-fluorophenyl)-5-methoxy-2,3-dihydro-1-benzofuran-2-yl]methyl}amine], the inhibition constant Ki in assay [1] turned out to be 0.061 µM. Also, in assay [2], the maximal response (Emax) stood at 60% and the EC50 worked out at 0.859 µM.

As for `COc1cc2c(c(-c3cc(C)ccc3C)c1)OC(CN)C2` (racemic) [Example 370, (±)-{[7-(2,5-dimethylphenyl)-5-methoxy-2,3-dihydro-1-benzofuran-2-yl]methyl}amine], the inhibition constant (Ki) in assay [1] came to 0.03 µM. For the same compound, in assay [2], the Emax was 80% and the concentration for a half-maximal effect (EC50) stood at 0.19 µM.

Regarding `COc1cc2c(c(-c3cc(Cl)ccc3Cl)c1)OC(CN)C2` (racemic) [Example 367, (±)-{[7-(2,5-dichlorophenyl)-5-methoxy-2,3-dihydro-1-benzofuran-2-yl]methyl}amine], in assay [1], the Ki was 0.00021 µM. Further, in assay [2], the maximal response (Emax) amounted to 100% and the EC50 amounted to 0.003 µM.

In the case of `CNCC1Cc2cccc(-c3ccccc3Cl)c2O1` (racemic) [Example 409, (±)-[(N-methyl-1-[7-(2-chlorophenyl)-2,3-dihydro-1-benzofuran-2-yl]methanamine], in assay [1], the inhibition constant (Ki) turned out to be 0.003 µM. Moreover, in assay [2], the maximal response (Emax) came to 90% and the concentration for a half-maximal effect (EC50) turned out to be 0.022 µM.

Take `CNCC1Cc2cc(C)cc(-c3ccc(Cl)cc3)c2O1` (racemic) [Example 481, (±)-{[7-(4-chlorophenyl)-5-methyl-2,3-dihydro-1-benzofuran-2-yl]methyl}methylamine]: the Ki in assay [1] is 0.0015 µM. Moreover, in assay [2], the Emax is 80% and the EC50 was 0.075 µM.

Turning to `NCC1Cc2c(cccc2-c2ccccc2)O1` (racemic) [Example 1, (±)-1-(4-phenyl-2,3-dihydro-1-benzofuran-2-yl)methanamine], the Ki in assay [1] came to 0.043 µM. Besides, in assay [2], the Emax is 90% and the 50% effective concentration (EC50) was determined as 0.926 µM.

As to `CNCC1Cc2cc(Cl)cc(-c3cc(Cl)ccc3Cl)c2O1` (single isomer, unassigned; (+)) [Example 562, (+)-{[5-chloro-7-(2,5-dichlorophenyl)-2,3-dihydro-1-benzofuran-2-yl]methyl}methylamine], the inhibition constant (Ki) in assay [1] amounted to 0.00048 µM. Besides, in assay [2], the Emax amounted to 90% and the EC50 was determined as 0.002 µM.

Consider `COc1ccc(Cl)cc1-c1cccc2c1OC(CN)C2` (racemic) [Example 169, (±)-{[7-(5-chloro-2-methoxyphenyl)-2,3-dihydro-1-benzofuran-2-yl]methyl}amine], for which the Ki in assay [1] amounted to 0.014 µM. Moreover, in assay [2], the maximum response (Emax) is 100% and the EC50 came out at 0.05 µM.

As for `COc1ccc(OC)c(-c2cc(OC)cc3c2OC(CN)C3)c1` (racemic) [Example 371, (±)-{[7-(2,5-dimethoxyphenyl)-5-methoxy-2,3-dihydro-1-benzofuran-2-yl]methyl}amine], in assay [1], the Ki worked out at 0.014 µM. Further, in assay [2], the maximum response (Emax) worked out at 80% and the EC50 was 0.064 µM.

As for `CNCC1Cc2cccc(-c3ccc(C)cc3)c2O1` (racemic) [Example 418, (±)-[(N-methyl-1-[7-(4-methylphenyl)-2,3-dihydro-1-benzofuran-2-yl]methanamine], the Ki in assay [1] turned out to be 0.0011 µM. Moreover, in assay [2], the Emax was 80% and the EC50 was 0.059 µM.

For `NCC1Cc2cccc(-c3ccc(F)cc3)c2O1` (racemic) [Example 73, (±)-1-[7-(4-fluorophenyl)-2,3-dihydro-1-benzofuran-2-yl]methanamine], the Ki in assay [1] is 0.005 µM. For the same compound, in assay [2], the maximal effect (Emax) came to 100% and the EC50 amounted to 0.041 µM.

`Cc1cc(Cl)ccc1-c1cccc2c1OC(CN)C2` (single isomer, unassigned; (-)) [Example 159, (−)-{[7-(4-chloro-2-methylphenyl)-2,3-dihydro-1-benzofuran-2-yl]methyl}amine]: the Ki in assay [1] is 0.012 µM. Moreover, in assay [2], the EC50 is 0.636 µM and the “5-HT2C Function Emax (%)” value was 80%.

Regarding `COc1ccc(-c2cc(F)cc3c2OC(CN)C3)c(OC)c1` (racemic) [Example 219, (±)-{[7-(2,4-dimethoxyphenyl)-5-fluoro-2,3-dihydro-1-benzofuran-2-yl]methyl}amine], the inhibition constant Ki in assay [1] is 0.007 µM. Further, in assay [2], the maximal response (Emax) is 90% and the EC50 was 0.079 µM.

Regarding `NCC1Cc2cccc(-c3c(Cl)cc(Cl)cc3Cl)c2O1` (racemic) [Example 166, (±)-{[7-(2,4,6-trichlorophenyl)-2,3-dihydro-1-benzofuran-2-yl]methyl}amine], in assay [1], the Ki amounted to 0.008 µM. In assay [2], the Emax was determined as 90% and the 50% effective concentration (EC50) stood at 0.0002 µM.

On to `CNCC1Cc2cc(C)cc(-c3cccc(OC)c3OC)c2O1` (racemic) [Example 484, (±)-{[7-(2,3-dimethoxyphenyl)-5-methyl-2,3-dihydro-1-benzofuran-2-yl]methyl}methylamine], for which, in assay [1], the inhibition constant (Ki) came to 0.00051 µM. Moreover, in assay [2], the Emax stood at 70% and the EC50 amounted to 0.043 µM.

With `CNCC1Cc2cc(OC)cc(-c3cc(OC)ccc3OC)c2O1` (racemic) [Example 501, (±)-{[7-(2,5-dimethoxyphenyl)-5-methoxy-2,3-dihydro-1-benzofuran-2-yl]methyl}methylamine], in assay [1], the Ki worked out at 0.045 µM. In addition, in assay [2], the Emax came to 70% and the half-maximal effective concentration (EC50) is 0.07 µM.

For `CNCC1Cc2cc(OC)cc(-c3c(C)cccc3C)c2O1` (single isomer, unassigned; (+)) [Example 561, (+)-{[7-(2,6-dimethylphenyl)-5-methoxy-2,3-dihydro-1-benzofuran-2-yl]methyl}methylamine], in assay [1], the Ki was 0.0027 µM. In assay [2], the EC50 is 0.021 µM and the “5-HT2C Function Emax (%)” value is recorded as 80%.

`NCC1Cc2cc(F)cc(-c3cccnc3)c2O1` (single isomer, unassigned; (+)) [Example 208, (+)-{[5-fluoro-7-pyridin-3-yl-2,3-dihydro-1-benzofuran-2-yl]methyl}amine]: the inhibition constant (Ki) in assay [1] came out at 0.0019 µM. Moreover, in assay [2], the concentration for a half-maximal effect (EC50) came out at 0.00036 µM and the “5-HT2C Function Emax (%)” value worked out at 100%.

Regarding `CC(C)(C)c1cccc2c1OC(CN)C2` (single isomer, unassigned; (-)) [Example 25, (−)-1-(7-tert-butyl-2,3-dihydro-1-benzofuran-2-yl)methanamine], the Ki in assay [1] worked out at 0.018 µM. In addition, in assay [2], the Emax turned out to be 90% and the EC50 turned out to be 0.01 µM.

`Cc1ccccc1-c1cccc2c1OC(CN)C2` (racemic) [Example 47, (±)-1-[7-(2-methylphenyl)-2,3-dihydro-1-benzofuran-2-yl]methanamine]: the Ki in assay [1] came to 0.0004 µM. Further, in assay [2], the maximal effect (Emax) was 100% and the EC50 came out at 0.0054 µM.

With `CC(C)c1cccc2c1OC(CN)C2` (racemic) [Example 18, (±)-(7-isopropyl-2,3-dihydro-1-benzofuran-2-yl)methylamine], the Ki in assay [1] is 0.005 µM. Besides, in assay [2], the Emax came out at 100% and the EC50 came out at 0.0096 µM.

Usually Ki stands for the equilibrium dissociation constant of an inhibitor or competing ligand from its target. Usually Emax stands for the size of the effect at its maximum, as opposed to the concentration needed. The term EC50 denotes the concentration needed to bring the measured effect to its halfway point.
